Experimental data from patent US20240158446A1, “CYCLIC COMPOUND HAVING SELECTIVE INHIBITORY ACTION ON KRAS OVER HRAS AND NRAS” (CHUGAI SEIYAKU KABUSHIKI KAISHA, priority 2021, published 2024).
*1 amine or outer side, *2 acyl side, *3 side chain or, on linkers, in order; H or OH if unused. Where a SMILES comes first, the peptide text is derived from it. Bridges are numbered along the chain shown (N, C = ends). [ ]: non-standard residue; d: D form. The star is where a group is joined. hPhe(3-Cl-4-CF3) = N[C@@H](CCc1ccc(C(F)(F)F)c(Cl)c1)C(=O)O; NPrPhe(4-CF3) = CCCN[C@@H](Cc1ccc(C(F)(F)F)cc1)C(=O)O; NEtAsp = CCN([C@@H](CC(=O)[*:3])C(=O)[*:2])[*:1]; NMeGly(cPent) = CN[C@H](C(=O)O)C1CCCC1; NEtLeu = CCN[C@@H](CC(C)C)C(=O)O; NMeD = CN[C@@H](CC(=O)O)C(=O)O; NMeL = CN[C@@H](CC(C)C)C(=O)O; NMeAbu = CC[C@H](NC)C(=O)O; Morpholide = C1CN(*)CCO1; Ac5c = NC1(C(=O)O)CCCC1; Ac4c = NC1(C(=O)O)CCC1; Sar = CNCC(=O)O

Assays:
[1] = molecular target: GDP-bound NRAS wild-type protein (Homo sapiens, UniProt P01111); test: Binding to NRAS by surface plasmon resonance (SPR), Single Cycle Kinetics; conditions: ratio of KD for GDP-bound NRAS wild-type protein to KD for KRAS, SPR
[2] = molecular target: GDP-bound HRAS wild-type protein (Homo sapiens, UniProt P01112); test: Binding to HRAS by surface plasmon resonance (SPR), Single Cycle Kinetics; conditions: ratio of KD for GDP-bound HRAS wild-type protein to KD for KRAS, SPR
[3] = tested on: human lung cancer strain NCI-H441; test: cells; conditions: NCI-H441, 96 h, read-out: NCI-H441 IC50 (nM), NCI-H441 cell proliferation, 4 days, CellTiter-Glo;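 note: cell proliferation inhibition after four days measured by CellTiter-Glo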
[4] = molecular target: GDP-bound KRAS wild-type protein (Homo sapiens, UniProt P01116); test: Binding to KRAS by surface plasmon resonance (SPR), Single Cycle Kinetics; conditions: SPR, Single Cycle Kinetics, GDP-bound KRAS wild-type protein; read-out: KRAS KD
GDP-bound KRAS wild-type protein, sequence (P01116 whole entry): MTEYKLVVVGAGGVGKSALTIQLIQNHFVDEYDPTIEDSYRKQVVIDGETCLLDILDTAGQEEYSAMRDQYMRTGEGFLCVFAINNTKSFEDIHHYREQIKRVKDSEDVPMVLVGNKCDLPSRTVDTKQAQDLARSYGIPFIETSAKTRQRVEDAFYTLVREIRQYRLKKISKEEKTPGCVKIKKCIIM

GDP-bound HRAS wild-type protein, sequence (P01112 whole entry): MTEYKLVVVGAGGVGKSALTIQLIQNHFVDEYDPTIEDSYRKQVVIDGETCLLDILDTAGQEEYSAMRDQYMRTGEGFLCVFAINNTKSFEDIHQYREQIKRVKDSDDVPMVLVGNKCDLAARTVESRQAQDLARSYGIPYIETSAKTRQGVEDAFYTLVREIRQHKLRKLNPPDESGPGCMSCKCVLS
GDP-bound NRAS wild-type protein, sequence (P01111 whole entry): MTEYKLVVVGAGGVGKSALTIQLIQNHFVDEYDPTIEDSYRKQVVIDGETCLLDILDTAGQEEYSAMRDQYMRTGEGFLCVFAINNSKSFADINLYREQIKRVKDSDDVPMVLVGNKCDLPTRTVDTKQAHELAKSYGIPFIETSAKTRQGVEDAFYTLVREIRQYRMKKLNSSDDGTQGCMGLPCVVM

Row | IC50 [3] [nM] | Kd [4] [nM] | SMILES | NRAS/KRAS (KD ratio) [1] | HRAS/KRAS (KD ratio) [2]
1 | 8.7 | 0.42 | CCCN1C(=O)CN(C)C(=O)CN(C)C(=O)[C@H]([C@@H](C)CC)NC(=O)[C@H](CC(C)C)N(C)C(=O)C[C@@H](C(=O)N2CCOCC2)N(CC)C(=O)[C@H](C2CCCC2)N(C)C(=O)C2(CCC2)NC(=O)[C@@H]2CCCN2C(=O)[C@H](CCc2ccc(C(F)(F)F)c(Cl)c2)NC(=O)CN(C)C(=O)[C@@H]1Cc1ccc(C(F)(F)F)cc1 [PP1953] ([NMeL]I[Sar][Sar][NPrPhe(4-CF3)][Sar][hPhe(3-Cl-4-CF3)]P[Ac4c][NMeGly(cPent)][NEtAsp]-Morpholide; lactam N-11) | B (a compound having 3 or more and less than 10 is denoted as B) | B (a compound having 3 or more and less than 10 is denoted as B)
2 | 32.8 | 0.19 | CCCN1C(=O)CN(C)C(=O)CN(C)C(=O)[C@H]([C@@H](C)CC)NC(=O)[C@H](CC(C)C)N(C)C(=O)C[C@@H](C(=O)N2CCOCC2)N(C)C(=O)[C@H](C2CCCC2)N(C)C(=O)C2(CCC2)NC(=O)[C@H](CC)N(C)C(=O)[C@H](CCc2ccc(C(F)(F)F)c(Cl)c2)NC(=O)CN(C)C(=O)[C@@H]1Cc1ccc(C(F)(F)F)cc1 [PP1918] ([NMeL]I[Sar][Sar][NPrPhe(4-CF3)][Sar][hPhe(3-Cl-4-CF3)][NMeAbu][Ac4c][NMeGly(cPent)][NMeD]-Morpholide; lactam N-11) | B (a compound having 3 or more and less than 10 is denoted as B) | C (A compound having a KD ratio of 0.1 or more and less than 3 is denoted as C)
3 | 47.8 | 0.17 | CC[C@H](C)[C@@H]1NC(=O)[C@H](CC(C)C)N(C)C(=O)C[C@@H](C(=O)N(C)C)N(C)C(=O)[C@H](C2CCCC2)N(C)C(=O)C2(CCC2)NC(=O)[C@@H]2C[C@@H](C)CN2C(=O)[C@H](CCc2ccc(C(F)(F)F)c(OC)c2)NC(=O)CN(C)C(=O)[C@H](Cc2ccc(C)cc2)N2CC/C=C\C[C@@H](C2=O)N(C)C(=O)CN(C)C1=O [PP1867] | A (a compound having 10 or more and less than 20 is denoted as A) | B (a compound having 3 or more and less than 10 is denoted as B)
4 | 18.3 | 0.16 | CC[C@H](C)[C@@H]1NC(=O)[C@H](CC2CCC2)N(C)C(=O)C[C@@H](C(=O)N(C)C)N(C)C(=O)[C@H](C2CCCC2)N(C)C(=O)C2(CC(C)(C)C2)NC(=O)[C@@H]2CCCN2C(=O)[C@H](CCc2cc(F)c(C(F)(F)F)c(F)c2)NC(=O)CN(C)C(=O)[C@H](Cc2ccc(C(F)(F)F)cc2)N2CC/C=C\C[C@@H](C2=O)N(C)C(=O)CN(C)C1=O [PP1728] | A (a compound having 10 or more and less than 20 is denoted as A) | A (a compound having 10 or more and less than 20 is denoted as A)
5 | 61.9 | 1.2 | CCO[C@@H]1C[C@H]2C(=O)NC3(CCC3)C(=O)N(C)[C@@H](C(CC)CC)C(=O)N3CCC[C@@H]3CC(=O)N(C)[C@@H](CC3CC3)C(=O)N[C@@H]([C@@H](C)CC)C(=O)N(C)CC(=O)N(C)[C@H]3C/C=C\CCN(C3=O)[C@@H](Cc3ccc(C(F)(F)F)cc3)C(=O)N(C)CC(=O)N[C@@H](CCc3cc(F)c(C(F)(F)F)c(F)c3)C(=O)N2C1 [PP1612] | B (a compound having 3 or more and less than 10 is denoted as B) | B (a compound having 3 or more and less than 10 is denoted as B)
6 | 98.7 | 0.54 | CC[C@H](C)[C@@H]1NC(=O)[C@H](CC(C)C)N(C)C(=O)C[C@@H](C(=O)N(C)C)N(C)C(=O)[C@H](C2CCCC2)N(C)C(=O)C2(CC(C)(C)C2)NC(=O)CN(C)C(=O)[C@H](CCc2cc(F)c(C(F)(F)F)c(F)c2)NC(=O)CN(C)C(=O)[C@H](Cc2ccc(C(F)(F)F)cc2)N2CC/C=C\C[C@@H](C2=O)N(C)C(=O)CN(C)C1=O [PP1776] | A (a compound having 10 or more and less than 20 is denoted as A) | A (a compound having 10 or more and less than 20 is denoted as A)
7 | 105 | 0.63 | CCO[C@@H]1C[C@H]2C(=O)NC3(CCC3)C(=O)N(C)[C@@H](C3CCCC3)C(=O)N(C)[C@H](C(=O)N(C)C)CC(=O)N(C)[C@@H](CC)C(=O)N[C@@H]([C@@H](C)CC)C(=O)N(C)CC(=O)N(C)[C@H]3C/C=C\CCN(C3=O)[C@@H](Cc3ccc(C(F)(F)F)cc3)C(=O)N(C)CC(=O)N[C@@H](CCc3cc(C)c(Cl)c(C)c3)C(=O)N2C1 [PP1821] | A (a compound having 10 or more and less than 20 is denoted as A) | A (a compound having 10 or more and less than 20 is denoted as A)
8 | 10.9 | 0.36 | CCCN1C(=O)CN(C)C(=O)CNC(=O)[C@H]([C@@H](C)CC)NC(=O)[C@H](CC(C)C)N(CC)C(=O)C[C@@H](C(=O)N2CCOCC2)N(C)C(=O)[C@H](C2CCCC2)N(C)C(=O)C2(CCCC2)NC(=O)[C@@H]2CCCN2C(=O)[C@H](CCc2ccc(C(F)(F)F)c(Cl)c2)NC(=O)CN(C)C(=O)[C@@H]1Cc1ccc(C(F)(F)F)cc1 [PP1967] ([NEtLeu]IG[Sar][NPrPhe(4-CF3)][Sar][hPhe(3-Cl-4-CF3)]P[Ac5c][NMeGly(cPent)][NMeD]-Morpholide; lactam N-11) | B (a compound having 3 or more and less than 10 is denoted as B) | B (a compound having 3 or more and less than 10 is denoted as B)
9 | 8.2 | 0.11 | CCCOC[C@H]1C(=O)N[C@@H]([C@@H](C)CC)C(=O)N(C)CC(=O)N(C)[C@H]2C/C=C\CCN(C2=O)[C@@H](Cc2ccc(C(F)(F)F)cc2)C(=O)N(C)CC(=O)N[C@@H](CCc2ccc(C(F)(F)F)c(OC)c2)C(=O)N2C[C@H](OCC)C[C@H]2C(=O)NC2(CCC2)C(=O)N(C)[C@@H](C2CCCC2)C(=O)N(C)[C@H](C(=O)N(C)CC)CC(=O)N1C [PP2016] | A (a compound having 10 or more and less than 20 is denoted as A) | A (a compound having 10 or more and less than 20 is denoted as A)
10 | 9.2 | 0.17 | CCC[C@H]1C(=O)N[C@@H]([C@@H](C)CC)C(=O)N(C)CC(=O)N(C)[C@H]2C/C=C\CCN(C2=O)[C@@H](Cc2ccc(C(F)(F)F)cc2)C(=O)N(C)CC(=O)N[C@@H](CCc2cc(F)c(C(F)(F)F)c(F)c2)C(=O)N2C[C@H](OCC)C[C@H]2C(=O)NC2(CC(C)(C)C2)C(=O)N(C)[C@@H]([C@@H](C)CC)C(=O)N(C)[C@H](C(=O)N(C)C)CC(=O)N1C [PP1941] | A (a compound having 10 or more and less than 20 is denoted as A) | A (a compound having 10 or more and less than 20 is denoted as A)
11 | 7.8 | 0.083 | CC[C@H](C)[C@@H]1NC(=O)[C@H](C2CC2)N(C)C(=O)C[C@@H](C(=O)N(C)C)N(C)C(=O)[C@H](C2CCCC2)N(C)C(=O)C2(CCC2)N(C)C(=O)[C@@H]2CCCN2C(=O)[C@H](CCc2cc(F)c(C(F)(F)F)c(F)c2)NC(=O)CN(C)C(=O)[C@H](Cc2ccc(C)cc2)N2CC/C=C\C[C@@H](C2=O)N(C)C(=O)CN(C)C1=O [PP1784] | A (a compound having 10 or more and less than 20 is denoted as A) | B (a compound having 3 or more and less than 10 is denoted as B)
